The values below are quoted from earlier work in patent US20070014855A1, “STABLE DESLORATADINE COMPOSITIONS” (priority 2005, published 2007).

SMILES strings stand for the structures.

As to `Clc1ccc2c(c1)CCc1cccnc1C2=C1CCNCC1` [Desloratadine, 8-chloro-6,11-dihydro-11-(4-piperidylidene)-5H-benzo[5,6]-cyclohepta[1,2-b]pyridine], for the setting “ethanol”, the solubility in ethanol entry is “very soluble”. Also, the “solubility in propylene glycol” value (propylene glycol) was “very soluble”. Where the note is “water”, the solubility in water entry is on record as “slightly soluble”.
